Holding throughout (assay): NCI-60 cell line screen, 48 h
Assay [1] deals with EKVX NSCLC.
Assay [2] has as its system MOLT-4 leukemia.
The subject of assay [3] is TK-10 renal.
In assay [4] the test system is M19-MEL melanoma.
For assay [5], the system named is SK-OV-3 ovarian.
In assay [6] the test system is A498 renal.
Assay [7] concerns MALME-3M melanoma.
Assay [8] relates to MCF7 breast.
The subject of assay [9] is DU-145 prostate.
Assay [10] concerns DMS 273 small cell lung.

Several values for one entry are separate records, joined by “and”; a condition that tells them apart may be missing. Identical values can stand only once.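 Grown in 96-well plates, cells were treated for 48 hours with each compound at five concentrations. Insufficient inhibition: endpoint recorded as highest concentration tested. The concentration for 50% growth inhibition is given as GI50. TGI denotes the concentration required for complete inhibition of growth.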 Some results are limits rather than exact numbers.

Take `COc1ccc2nc3ccccc3c(NCCN(CCCl)CCCl)c2c1`: the TGI in assay [1] amounted to 8.02 µM; in [2], 0.758 µM; in [3], 5.59 µM; in assay [4], 3.2 µM; in [5], 5.05 µM; in [6] it was 5.73 µM. Besides, in assay [7], the TGI came to 3.01 µM.

In the case of `Cc1cnc(-c2ccc(-c3ccc(NC(=O)Nc4c(F)cc(F)cc4F)cc3F)c3c2C(=O)NC3)[nH]1`, the GI50 in assay [1] was 2.33 µM and 2.96 µM; in assay [2], 0.0686 µM and 0.212 µM; in [8], 0.141 µM and 0.41 µM; in assay [3] it was 2.06 µM and 5.43 µM; in [9] it was 1.1 µM and 1.42 µM; in assay [5] it was 1.42 µM and 3.59 µM. Moreover, the GI50 was 6.48 µM and 2.13 µM in assay [6]; 0.124 µM and 0.106 µM in [7]. Moreover, the TGI is > 100 µM in assay [1]; 13.1 µM and 18.1 µM in [2]; 6.53 µM and 12.8 µM in [8]; 7.67 µM and 17.6 µM in assay [3]; 4.64 µM and 7.36 µM in [9]; 18.3 µM and 23.3 µM in [5]. In addition, the TGI in assay [6] is 24.3 µM and 14.9 µM; in assay [7], 2.37 µM and 2.8 µM.

On to `O=C(/C=C/C=C/c1ccc2c(c1)OCO2)N/N=C\c1ccc(O)cc1O`, for which the GI50 in assay [1] is 2.05 µM; in assay [2], 1.41 µM; in [8] it was 2.6 µM; in assay [3] it was 2.95 µM; in assay [9] it was 3.46 µM; in assay [5], 3.43 µM. Moreover, the GI50 is 2.07 µM in [6] and 2.03 µM in assay [7]. In addition, the TGI in assay [1] was found to be 15.1 µM; in assay [2] it was 18.8 µM; in [8], 13.7 µM; in assay [3], 33 µM; in assay [9], 22.3 µM; in assay [5], 20.9 µM. Also, the TGI in [6] stood at 7.15 µM; in [7], 10.5 µM.

For the compound `O=C1OCC2=C1C(c1cccc(Cl)c1)c1cc3c(cc1N2CCO)CCC3` (centres undefined), the GI50 was 0.295 µM in assay [1]; 0.192 µM in assay [2]; 0.0363 µM in assay [8]; 0.0464 µM in assay [3]; 0.0406 µM in assay [9]; 0.0414 µM in [5]. Moreover, the GI50 in [6] is 0.0215 µM; in assay [7], 0.0494 µM. Also, the TGI in [1] stood at 17.2 µM; in [2], 20.3 µM; in assay [8], 12.9 µM; in assay [3], 16.3 µM; in assay [9], 0.425 µM; in assay [5] it was 7.8 µM. The TGI in assay [6] was found to be 0.0947 µM; in [7], 22.7 µM.

As to `O=C(CN1CCN(C(=O)c2ccco2)CC1)Nc1ccc(Cl)cc1C(=O)c1ccccc1Cl`, the GI50 in assay [1] is 5.53 µM; in [2] it was 2.14 µM; in assay [8], 5.31 µM; in assay [3] it was 10.2 µM; in assay [9], 15.5 µM; in assay [5], 16.1 µM. Also, the GI50 was 6.8 µM in assay [6] and 7 µM in assay [7]. Besides, the TGI in assay [1] came out at 30 µM; in [2], 5.44 µM; in assay [8] it was 21.7 µM; in assay [3], 36.2 µM; in [9] it was 35.2 µM; in assay [5], 76.7 µM. Further, the TGI in assay [6] was 22.9 µM; in [7], 22.2 µM.

For the compound `O=C(CC(=O)c1cccc([N+](=O)[O-])c1)C(=O)Nc1ccccc1`, the TGI in [1], in assay [10], in [2], in assay [3], in assay [4] and in assay [6] was > 100 µM each time. In assay [7], the TGI is > 100 µM.

As for `COc1ccc([C@@H]2OC(=O)C3C2C(=O)O[C@H]3c2ccc(OC)cc2)cc1` (some centres undefined), the TGI in assay [1], in [10], in assay [2], in assay [4], in assay [5] and in assay [6] was > 100 µM throughout.

Consider `COc1cc(C)[nH]c(=O)c1CNC(=O)c1c(C)n([C@H](C)C2CCN(CC(F)(F)F)CC2)c2ccccc12`, for which the GI50 in assay [1] is 37.5 µM; in assay [2], 35.9 µM; in assay [8], 25.7 µM; in assay [3], 88.5 µM; in assay [9], 57.8 µM; in [5], 51.8 µM. The values for the GI50 in assay [6] and in [7] were 28.2 µM and 87.8 µM, respectively. Besides, the TGI in [1], in assay [2], in assay [8], in assay [3], in assay [9] and in assay [5] was > 100 µM each time. The TGI in assay [6] and in [7] was > 100 µM in each case.

Regarding `COc1cc2c(cc1[N+](=O)[O-])C(=O)C(Br)(Br)CCC2`, the TGI in assay [1] amounted to 6.25 µM; in assay [2] it was 5.95 µM; in assay [8] it was 5.33 µM; in assay [3], 9.72 µM; in assay [9] it was 25.8 µM; in assay [5] it was 9.41 µM. The TGI came to 28.6 µM in [6] and 4.99 µM in [7].

Consider `Cc1cc(C)c2c(c1)N(C)c1ncnc(-n3cnc4cc(C)ccc43)c1CC2C` (centres undefined), for which the GI50 is 4.76 µM in assay [1]; 2.46 µM in assay [2]; 3.42 µM in assay [8]; 7.37 µM in [3]; 4.44 µM in assay [9]; 4.41 µM in assay [5]. In addition, the GI50 is 1.41 µM in assay [6] and 3.61 µM in [7]. For the same compound, the TGI in [1] is > 100 µM; in assay [2], 9.57 µM; in assay [8], > 100 µM; in [3], > 100 µM; in assay [9] it was 63.7 µM; in [5], > 100 µM. The values for the TGI in assay [6] and in assay [7] were 6.21 µM and 17.3 µM, respectively.

For the origin of these results see PubChem BioAssay (NCI).
